Values joined by “and” are separate entries in the source; they are usually repeats but may differ in a detail not shown here. Equal values may be shown once. Toxic doses and inconclusive results are not listed.
Test system: L1210 leukemia ip in BDF1 mice, survival T/C
Experiment: NCI In Vivo Anticancer Drug Screen. Data for tumor model L1210 Leukemia (intraperitoneal) in B6D2F1 (BDF1) mice
Conditions: endpoint: mean survival time, higher = longer survival
How it was run: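 Mice bearing the transplanted tumor received compound or vehicle. Survival of the treated group was divided by that of the vehicle-treated control group to give the ratio.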

[1] = dose: 75.0 mg/kg/injection, schedule: Q01DX001 (ip), vehicle: saline
[2] = dose: 100.0 mg/kg/injection, schedule: Q04DX003 (ip), vehicle: Klucel (hydroxypropylcellulose) (HPC)
[3] = dose: 150.0 mg/kg/injection, schedule: Q01DX001 (ip), vehicle: saline
[4] = dose: 200.0 mg/kg/injection, schedule: Q04DX003 (ip), vehicle: Klucel (hydroxypropylcellulose) (HPC)
[5] = dose: 400.0 mg/kg/injection, schedule: Q04DX003 (ip), vehicle: Klucel (hydroxypropylcellulose) (HPC)
[6] = dose: 100.0 mg/kg/injection, schedule: Q01DX001 (ip), vehicle: saline
[7] = dose: 200.0 mg/kg/injection, schedule: Q01DX001 (ip), vehicle: saline
[8] = dose: 100.0 mg/kg/injection, schedule: Q01DX009 (ip), vehicle: saline with Tween-80
[9] = dose: 200.0 mg/kg/injection, schedule: Q01DX009 (ip), vehicle: saline with Tween-80
[10] = dose: 100.0 mg/kg/injection, schedule: Q01DX001 (ip), vehicle: saline with Tween-80
[11] = dose: 200.0 mg/kg/injection, schedule: Q01DX001 (ip), vehicle: saline with Tween-80
[12] = dose: 400.0 mg/kg/injection, schedule: Q01DX001 (ip), vehicle: saline with Tween-80

SMILES: Cc1ccccc1-n1c(C)nc2ccccc2c1=O
- T/C [1]: 102 % of control
- T/C (dose: 100.0 mg/kg/injection, schedule: Q01DX001 (ip), vehicle: other): 94 % of control
- T/C (dose: 100.0 mg/kg/injection, schedule: Q01DX009 (ip), vehicle: Klucel (hydroxypropylcellulose) (HPC)): 97 % of control
- T/C [2]: 101 % of control
- T/C [3]: 106 % of control
- T/C (dose: 200.0 mg/kg/injection, schedule: Q01DX001 (ip), vehicle: other): 100 % of control
- T/C (dose: 200.0 mg/kg/injection, schedule: Q01DX009 (ip), vehicle: Klucel (hydroxypropylcellulose) (HPC)): 105 % of control
- T/C [4]: 105 % of control
- T/C (dose: 300.0 mg/kg/injection, schedule: Q01DX001 (ip), vehicle: saline): 107 % of control
- T/C (dose: 400.0 mg/kg/injection, schedule: Q01DX001 (ip), vehicle: other): 96 % of control
- T/C [5]: 111 % of control

SMILES: NC(N)=N/N=C\c1ccc(CCC(=O)O)cc1
- T/C (dose: 15.0 mg/kg/injection, schedule: Q01DX Z (ip), vehicle: carboxymethylcellulose (CMC)): 97 % of control
- T/C (dose: 30.0 mg/kg/injection, schedule: Q01DX Z (ip), vehicle: carboxymethylcellulose (CMC)): 97 % of control
- T/C (dose: 60.0 mg/kg/injection, schedule: Q01DX Z (ip), vehicle: carboxymethylcellulose (CMC)): 101 % of control
- T/C (dose: 120.0 mg/kg/injection, schedule: Q01DX Z (ip), vehicle: carboxymethylcellulose (CMC)): 97 % of control
- T/C (dose: 120.0 mg/kg/injection, schedule: Q01DX Z (oral), vehicle: carboxymethylcellulose (CMC)): 113 % of control
- T/C (dose: 240.0 mg/kg/injection, schedule: Q01DX Z (oral), vehicle: carboxymethylcellulose (CMC)): 112 % of control
- T/C (dose: 480.0 mg/kg/injection, schedule: Q01DX Z (oral), vehicle: carboxymethylcellulose (CMC)): 109 % of control
- T/C (dose: 960.0 mg/kg/injection, schedule: Q01DX Z (oral), vehicle: carboxymethylcellulose (CMC)): 109 % of control

SMILES: Nc1ccc2ccccc2c1-c1c(N)ccc2ccccc12
- T/C (dose: 75.0 mg/kg/injection, schedule: Q04DX002 (ip), vehicle: saline with Tween-80): 109 % of control
- T/C [2]: 97 % of control
- T/C [4]: 103 % of control
- T/C (dose: 300.0 mg/kg/injection, schedule: Q04DX002 (ip), vehicle: saline with Tween-80): 94 % of control
- T/C [5]: 88 % of control

SMILES: CCN(CC)CCCC(C)n1nnc2cc(Cl)ccc21 (stereo unspecified)
- T/C [6]: 97 % of control
- T/C [7]: 97 % of control

SMILES: COC(=O)c1cc2ccccc2c2ccccc12
- T/C [8]: 94 % of control
- T/C [9]: 91 % of control
- T/C (dose: 400.0 mg/kg/injection, schedule: Q01DX009 (ip), vehicle: saline with Tween-80): 87 % of control

SMILES: O=C1/C(=C/c2ccccn2)CCc2cc(Cl)ccc21
- T/C (dose: 100.0 mg/kg/injection, schedule: Q04DX003 (ip), vehicle: carboxymethylcellulose (CMC)): 93 % of control
- T/C (dose: 200.0 mg/kg/injection, schedule: Q04DX003 (ip), vehicle: carboxymethylcellulose (CMC)): 96 % of control
- T/C (dose: 400.0 mg/kg/injection, schedule: Q04DX003 (ip), vehicle: carboxymethylcellulose (CMC)): 96 % of control

SMILES: COc1cc(SSc2ccc(N)c(OC)c2)ccc1N
- T/C (dose: 75.0 mg/kg/injection, schedule: Q01DX001 (ip), vehicle: carboxymethylcellulose (CMC)): 105 % of control
- T/C (dose: 150.0 mg/kg/injection, schedule: Q01DX001 (ip), vehicle: carboxymethylcellulose (CMC)): 88 % of control

SMILES: COc1cc(C(N)=O)cc(OC)c1OC
- T/C [10]: 96 % of control
- T/C [11]: 98 % of control
- T/C [12]: 98 % of control

SMILES: CN=C(NC)Nc1ccc(NC(=O)c2ccc(C(=O)Nc3ccc(NC(=NC)NC)cc3)cc2)cc1
- T/C (dose: 0.8 mg/kg/injection, schedule: Q01DX Z (ip), vehicle: carboxymethylcellulose (CMC)): 97 % of control
- T/C (dose: 1.62 mg/kg/injection, schedule: Q01DX Z (ip), vehicle: carboxymethylcellulose (CMC)): 123 % of control
- T/C (dose: 1.76 mg/kg/injection, schedule: Q01DX Z (oral), vehicle: carboxymethylcellulose (CMC)): 115 % of control
- T/C (dose: 2.68 mg/kg/injection, schedule: Q01DX Z (oral), vehicle: carboxymethylcellulose (CMC)): 109 % of control
- T/C (dose: 3.25 mg/kg/injection, schedule: Q01DX Z (ip), vehicle: carboxymethylcellulose (CMC)): 238 % of control
- T/C (dose: 4.0 mg/kg/injection, schedule: Q01DX Z (oral), vehicle: carboxymethylcellulose (CMC)): 117 % of control
- T/C (dose: 6.0 mg/kg/injection, schedule: Q01DX Z (oral), vehicle: carboxymethylcellulose (CMC)): 108 % of control
- T/C (dose: 6.5 mg/kg/injection, schedule: Q01DX Z (ip), vehicle: carboxymethylcellulose (CMC)): 173 % of control and 200 % of control
- T/C (dose: 8.0 mg/kg/injection, schedule: Q01DX001 (ip), vehicle: carboxymethylcellulose (CMC)): 113 % of control
- T/C (dose: 8.0 mg/kg/injection, schedule: Q01DX001 (ip), vehicle: other): 107 % of control
- T/C (dose: 11.0 mg/kg/injection, schedule: Q01DX001 (ip), vehicle: carboxymethylcellulose (CMC)): 122 % of control
- T/C (dose: 11.0 mg/kg/injection, schedule: Q01DX001 (ip), vehicle: other): 110 % of control
- T/C (dose: 25.0 mg/kg/injection, schedule: Q01DX Z (oral), vehicle: carboxymethylcellulose (CMC)): 103 % of control
- T/C (dose: 26.0 mg/kg/injection, schedule: Q01DX Z (ip), vehicle: carboxymethylcellulose (CMC)): 104 % of control
- T/C (dose: 39.0 mg/kg/injection, schedule: Q01DX001 (ip), vehicle: other): 155 % of control
- T/C (dose: 40.0 mg/kg/injection, schedule: Q01DX001 (ip), vehicle: carboxymethylcellulose (CMC)): 152 % of control
- T/C (dose: 40.0 mg/kg/injection, schedule: Q01DX001 (ip), vehicle: other): 153 % of control
- T/C (dose: 50.0 mg/kg/injection, schedule: Q01DX Z (oral), vehicle: carboxymethylcellulose (CMC)): 105 % of control
- T/C (dose: 53.0 mg/kg/injection, schedule: Q01DX Z (ip), vehicle: carboxymethylcellulose (CMC)): 87 % of control
- T/C (dose: 60.0 mg/kg/injection, schedule: Q01DX001 (ip), vehicle: carboxymethylcellulose (CMC)): 214 % of control
- T/C (dose: 60.0 mg/kg/injection, schedule: Q01DX001 (ip), vehicle: other): 192 % of control
- T/C (dose: 90.0 mg/kg/injection, schedule: Q01DX001 (ip), vehicle: carboxymethylcellulose (CMC)): 234 % of control
- T/C (dose: 90.0 mg/kg/injection, schedule: Q01DX001 (ip), vehicle: other): 236 % of control
- T/C (dose: 100.0 mg/kg/injection, schedule: Q01DX Z (oral), vehicle: carboxymethylcellulose (CMC)): 103 % of control
- T/C (dose: 200.0 mg/kg/injection, schedule: Q01DX Z (oral), vehicle: carboxymethylcellulose (CMC)): 102 % of control

SMILES: C=CCOc1ccccc1OC
- T/C (dose: 50.0 mg/kg/injection, schedule: Q01DX009 (ip), vehicle: saline with Tween-80): 96 % of control
- T/C [8]: 100 % of control
- T/C (dose: 100.0 mg/kg/injection, schedule: Q04DX003 (ip), vehicle: saline with Tween-80): 103 % of control
- T/C [9]: 95 % of control
- T/C (dose: 200.0 mg/kg/injection, schedule: Q04DX003 (ip), vehicle: saline with Tween-80): 112 % of control

SMILES: NC1(C(=O)O)CC2CC1C2 (stereo unspecified)
- T/C (dose: 100.0 mg/kg/injection, schedule: Q04DX002 (ip), vehicle: other): 95 % of control
- T/C (dose: 200.0 mg/kg/injection, schedule: Q04DX002 (ip), vehicle: other): 106 % of control
- T/C (dose: 400.0 mg/kg/injection, schedule: Q04DX002 (ip), vehicle: other): 92 % of control

SMILES: COc1ccc(C=Nc2cc([N+](=O)[O-])ccc2O)cc1
- T/C (dose: 100.0 mg/kg/injection, schedule: Q01DX001 (ip), vehicle: carboxymethylcellulose (CMC)): 98 % of control
- T/C (dose: 200.0 mg/kg/injection, schedule: Q01DX001 (ip), vehicle: carboxymethylcellulose (CMC)): 98 % of control
- T/C (dose: 400.0 mg/kg/injection, schedule: Q01DX001 (ip), vehicle: carboxymethylcellulose (CMC)): 94 % of control

SMILES: CCCCCCC[n+]1cccc(C#N)c1
- T/C (dose: 37.5 mg/kg/injection, schedule: Q04DX003 (ip), vehicle: saline): 96 % of control
- T/C [1]: 96 % of control
- T/C (dose: 75.0 mg/kg/injection, schedule: Q04DX003 (ip), vehicle: saline): 98 % of control
- T/C [3]: 100 % of control
- T/C (dose: 150.0 mg/kg/injection, schedule: Q04DX003 (ip), vehicle: saline): 95 % of control

SMILES: CCC1=C/C(=C/c2ccc([N+](=O)[O-])cc2)C(=O)S1
- T/C [10]: 87 % of control
- T/C [11]: 87 % of control
- T/C [12]: 87 % of control

SMILES: CC(=O)Oc1ccc2c(C)cc(=O)oc2c1
- T/C [6]: 100 % of control
- T/C [7]: 109 % of control

SMILES: NC(N)=NS(=O)(=O)c1ccc(C(N)=NC2CCCCC2)cc1
- T/C [6]: 96 % of control
- T/C [7]: 96 % of control
- T/C (dose: 400.0 mg/kg/injection, schedule: Q01DX001 (ip), vehicle: saline): 90 % of control
